In brackets after ≈: the same amount, converted by molar mass. Entries after “also recorded” stand apart in the source; their conditions may differ.
Legend:
B. ovatus Pen^r 3248 = assay: Anaerobic agar dilution, Wilkens-Chalgren agar; assay type: cell-based; settings: Bacteroides ovatus, 48 h
Eubacterium limosum 3344 = assay: Anaerobic agar dilution, Wilkens-Chalgren agar; assay type: cell-based; settings: inoculum 10^6 cfu/spot, 35° C., 48 hours
Description: (a) Wilkens-Chalgren agar was used instead of antagonist-free medium (Roche);
(b) The inoculum/spot was about 10^6 instead of about 10^4 ;
(c) The incubation period was for 48 hours, not 24 hours; and
(d) Incubations were performed under anaerobic conditions.

[1] = tested on: Propionibacterium acnes 2249; assay: Anaerobic agar dilution, Wilkens-Chalgren agar; assay type: cell-based; settings: Cutibacterium acnes, 2249, 48 h
[2] = tested on: Pasteurella multocida (4678); assay: Protection and survival of infected mice; settings: intraperitoneal
Ser. marcescens 2840 [3] = assay: Agar dilution, antagonist-free medium; settings: Serratia marcescens, 2840, 20 h
Proteus mirabilis 3126 = assay: Inhibition zone, agar plate; assay type: cell-based
Prot. vulgaris 2829 = assay: Agar dilution, antagonist-free medium; settings: Proteus vulgaris, 2829, 20 h
[4] = tested on: Pseudomonas aeruginosa 979; assay: Inhibition zone, agar plate; assay type: cell-based; settings: 15λ, read-out: Inhibition Zone Diameter
Sal. typhimurium 3860 [5] = assay: Agar dilution, trypticase soy agar; settings: Salmonella enterica, 20 h
C. perfringens 3511 = assay: microbe, parasite or virus in culture; assay type: cell-based; settings: Clostridium perfringens, 3511, 48 h
[6] = tested on: C. difficile Clind^r 4273; assay: Anaerobic agar dilution, Wilkens-Chalgren agar; assay type: cell-based; settings: Clostridioides difficile, 48 h
[7] = tested on: Bacillus subtilis 964 (6633); assay: Inhibition zone, agar plate; assay type: cell-based; settings: 15λ, read-out: Inhibition Zone Diameter
Sarcina lutea 1101 (934) = assay: Inhibition zone, agar plate; assay type: cell-based; settings: Micrococcus luteus, 15λ, read-out: Inhibition Zone Diameter
Aerobacter aerogenes 835 = assay: Inhibition zone, agar plate; assay type: cell-based; settings: Klebsiella aerogenes, 15λ, read-out: Inhibition Zone Diameter
K. pneumoniae K1+ 4354 = assay: Agar dilution, trypticase soy agar; settings: Klebsiella pneumoniae, 20 h
[8] = tested on: Fusobacterium mortiferum Fox^r 3345; assay: Anaerobic agar dilution, Wilkens-Chalgren agar; assay type: cell-based; settings: 48 h
Ser. marcescens 2840 [9] = assay: Agar dilution, trypticase soy agar; settings: Serratia marcescens, 2840, 20 h
[10] = tested on: B. thetalotamicron Clind^r, NCCLS control strain 4420; assay: Anaerobic agar dilution, Wilkens-Chalgren agar; assay type: cell-based; settings: 48 h
Sal. typhimurium 3860 [11] = assay: Agar dilution, antagonist-free medium; settings: Salmonella enterica, 20 h
B. fragilis Pen^r 3214 = assay: Anaerobic agar dilution, Wilkens-Chalgren agar; assay type: cell-based; settings: Bacteroides fragilis, 48 h
[12] = tested on: Actinomyces naeslundii 4053; assay: Anaerobic agar dilution, Wilkens-Chalgren agar; assay type: cell-based; settings: Actinomyces naeslundii, 4053, 48 h
[13] = tested on: Erwinia atroseptica 1159 (4446); assay: Inhibition zone, agar plate; assay type: cell-based; settings: Pectobacterium atrosepticum, 15λ, read-out: Inhibition Zone Diameter
[14] = tested on: B. fragilis NCCLS control strain 4419; assay: Anaerobic agar dilution, Wilkens-Chalgren agar; assay type: cell-based; settings: Bacteroides fragilis, 48 h
Ent. cloacae P99- 2647 = assay: Agar dilution, trypticase soy agar; settings: Enterobacter cloacae, P992647, 20 h
[15] = tested on: B. thetalotamicron Clind^r 4362; assay: Anaerobic agar dilution, Wilkens-Chalgren agar; assay type: cell-based; settings: 48 h
[16] = tested on: Klebsiella pneumoniae 1264; assay: Inhibition zone, agar plate; assay type: cell-based; settings: 15λ, read-out: Inhibition Zone Diameter
[17] = tested on: Clostridium perfringens NCCLS control strain 4418; assay: microbe, parasite or virus in culture; assay type: cell-based; settings: 48 h
Bacillus sp. 633 = assay: Inhibition zone, agar plate; assay type: cell-based; settings: 15λ, read-out: Inhibition Zone Diameter
Description: (§1) A crystalline sample of L-654,040 was dissolved in distilled water. Aliquots of 15λ were deposited on the surface of each seeded nutrient agar susceptibility test plate, followed by overnight incubation Plates were then measured for activity by determining the inhibition zone diameter under the previously placed 15λ aliquot.

Candida albicans 992 = assay: Inhibition zone, agar plate; assay type: cell-based; settings: 15λ, read-out: Inhibition Zone Diameter
Description: as §1

[18] = tested on: S. aureus Gm^r Meth^r 4310; assay: Agar dilution, trypticase soy agar; settings: Staphylococcus aureus, 20 h
[19] = tested on: Bordetella bronchiseptica (3771); assay: Protection and survival of infected mice; settings: intraperitoneal
[20] = tested on: Pseudomonas stutzeri 1231 (11607); assay: Inhibition zone, agar plate; assay type: cell-based; settings: Stutzerimonas stutzeri, 15λ, read-out: Inhibition Zone Diameter
C. perfringens 3509 = assay: microbe, parasite or virus in culture; assay type: cell-based; settings: Clostridium perfringens, 3509, 48 h
E. coli TEM 2+ 4351 = assay: Agar dilution, antagonist-free medium; settings: Escherichia coli, 20 h
C. perfringens 3510 = assay: microbe, parasite or virus in culture; assay type: cell-based; settings: Clostridium perfringens, 3510, 48 h

C[C@H](CNC(=O)[C@H]1N=C(c2cccc(O)c2O)O[C@@H]1C)C(=O)N[C@@H]1CCCN(O)C1=O [L-654,040, 2-(2,3-dihydroxyphenyl)-4,5-dihydro-N-[3-[(1-hydroxy-2-oxo-3(R)-piperidinyl)-amino]-2(R)-methyl-3-oxopropyl]-5R-methyl-4S-oxazolecarboxamide]
MIC (B. ovatus Pen^r 3248): > 128 µg/mL | MIC (Eubacterium limosum 3344): 128 µg/mL (≈ 295 µM) | MIC [1]: 128 µg/mL (≈ 295 µM) | protection against infection [2]: did not protect | statistical significance of prolonged survival ([2]; two Pasteurella tests): statistically significant at one level in two Pasteurella tests | survival time ([2]; 160 mg/kg x 2): prolongation of survival time was observed; also recorded: did prolong the survival time; also recorded: increases survival time | MIC (Ser. marcescens 2840 [3]): > 256 µg/mL | zone of inhibition at 500 µg/mL (Proteus mirabilis 3126; Proteus mirabilis, 3126, read-out: Inhibition Zone Diameter): 24 mm | zone of inhibition at 2000 µg/mL (Proteus mirabilis 3126; Proteus mirabilis, 3126, 2 mg/ml in distilled H2O, 15λ, read-out: Inhibition Zone Diameter): 25 mm | MIC (Prot. vulgaris 2829): > 256 µg/mL | zone of inhibition at 500 µg/mL ([4]; 0.5 mg/ml in distilled H2O): 0 mm | zone of inhibition at 2000 µg/mL ([4]; 2 mg/ml in distilled H2O): 0 mm | MIC (Sal. typhimurium 3860 [5]): > 128 µg/mL | MIC (C. perfringens 3511): 64 µg/mL (≈ 147 µM) | MIC [6]: 128 µg/mL (≈ 295 µM) | zone of inhibition at 500 µg/mL ([7]; 0.5 mg/ml in distilled H2O): 12 mm | zone of inhibition at 2000 µg/mL ([7]; 2 mg/ml in distilled H2O): 14 mm | zone of inhibition at 500 µg/mL (Sarcina lutea 1101 (934); 0.5 mg/ml in distilled H2O): 12 mm | zone of inhibition at 2000 µg/mL (Sarcina lutea 1101 (934); 2 mg/ml in distilled H2O): 17 mm | zone of inhibition at 500 µg/mL (Aerobacter aerogenes 835; 0.5 mg/ml in distilled H2O): 0 mm | zone of inhibition at 2000 µg/mL (Aerobacter aerogenes 835; 2 mg/ml in distilled H2O): 0 mm | MIC (K. pneumoniae K1+ 4354): > 128 µg/mL | MIC [8]: > 128 µg/mL | MIC (Ser. marcescens 2840 [9]): > 128 µg/mL | MIC [10]: > 128 µg/mL | MIC (Sal. typhimurium 3860 [11]): > 256 µg/mL | MIC (B. fragilis Pen^r 3214): > 128 µg/mL | MIC [12]: 128 µg/mL (≈ 295 µM) | zone of inhibition at 500 µg/mL ([13]; 0.5 mg/ml in distilled H2O): 0 mm | zone of inhibition at 2000 µg/mL ([13]; 2 mg/ml in distilled H2O): 0 mm | MIC [14]: > 128 µg/mL | MIC (Ent. cloacae P99- 2647): > 128 µg/mL | MIC [15]: > 128 µg/mL | zone of inhibition at 500 µg/mL ([16]; 0.5 mg/ml in distilled H2O): 0 mm | zone of inhibition at 2000 µg/mL ([16]; 2 mg/ml in distilled H2O): 0 mm | MIC [17]: 64 µg/mL (≈ 147 µM) | zone of inhibition at 500 µg/mL (Bacillus sp. 633; 0.5 mg/ml in distilled H2O): 23 mm | zone of inhibition at 2000 µg/mL (Bacillus sp. 633; 2 mg/ml in distilled H2O): 28 mm | zone of inhibition at 500 µg/mL (Candida albicans 992; 0.5 mg/ml in distilled H2O): 16 mm | zone of inhibition at 2000 µg/mL (Candida albicans 992; 2 mg/ml in distilled H2O): 24 mm | MIC [18]: 128 µg/mL (≈ 295 µM) | protection against infection [19]: did not protect | survival time ([19]; 160 mg/kg x 2, significant only in Pasteurella-infected animals): prolongation of survival time was observed; also recorded: did prolong the survival time | zone of inhibition at 500 µg/mL ([20]; 0.5 mg/ml in distilled H2O): 12 mm | zone of inhibition at 2000 µg/mL ([20]; 2 mg/ml in distilled H2O): 13 mm | MIC (C. perfringens 3509): 64 µg/mL (≈ 147 µM) | MIC (E. coli TEM 2+ 4351): > 256 µg/mL | MIC (C. perfringens 3510): 128 µg/mL (≈ 295 µM)

— patent US4956294A, “Culture of Streptoverticillium synroense for producing an antibacterial” (Merck & Co., Inc., priority 1989, dated 1990)
